Numbers after ± are expanded uncertainties.
Columns and labels:
[1] = xn = mol fraction of the nth substance listed; conditions: 303.15 K, Maximal bubble pressure
[2] = Boiling temperature at pressure P; conditions: 101.33 kPa; Liquid; Ebulliometric method (Recirculating still)
[3] = for surface tension liquid-gas: Maximal bubble pressure; for mass density: 101.33 kPa, Liquid, Vibrating tube method
[4] = refractive index (Na D-line) (dimensionless); conditions: 298.15 K; 101.33 kPa; Liquid; Standard Abbe refractometry

CCCCCC [hexane] + C1CCOCC1
Conditions | surface tension liquid-gas [mN/m]
[1], x1 = 1 | 17.4 ± 0.25

C1CCOCC1 [tetrahydropyran] + CCCCCC
[1]
Conditions | surface tension liquid-gas [mN/m]
x2 = 0 | 27.1 ± 0.27
x2 = 0.045 | 26.47 ± 0.27
x2 = 0.09 | 25.64 ± 0.27
x2 = 0.181 | 24.39 ± 0.27
x2 = 0.282 | 23.17 ± 0.26
x2 = 0.383 | 22.03 ± 0.26
x2 = 0.487 | 21.13 ± 0.26
x2 = 0.589 | 20.39 ± 0.26
x2 = 0.674 | 19.47 ± 0.25
x2 = 0.786 | 18.77 ± 0.25
x2 = 0.899 | 18.12 ± 0.25
x2 = 0.964 | 17.46 ± 0.25

C1CCOCC1 [tetrahydropyran]
Conditions | Boiling temperature at pressure P [°C] | refractive index
[2] | 88.21 ± 0.04 | –
[4] | – | 1.42 ± 0.00031

[3]
Conditions | mass density [kg/m3] | surface tension liquid-gas [mN/m]
283.15 K | – | 29.61 ± 0.28
288.15 K | – | 29.15 ± 0.28
293.15 K | – | 28.56 ± 0.28
298.15 K | 879.03 ± 0.09 | 28 ± 0.28
303.15 K | – | 27.14 ± 0.27
308.15 K | – | 26.5 ± 0.27
313.15 K | – | 25.55 ± 0.27
318.15 K | – | 25.25 ± 0.27
323.15 K | – | 24.23 ± 0.27
328.15 K | – | 23.6 ± 0.26
333.15 K | – | 22.75 ± 0.26

CCCCCC [hexane]
Conditions | mass density [kg/m3]
[3], 298.15 K | 655.19 ± 0.17

Conditions | refractive index
[4] | 1.37374 ± 0.00031

Source: the NIST ThermoML archive (doi:10.1016/j.fluid.2011.12.007)
